Experimental data reported in US9023844B2, “Heterocyclylpyri (mi) dinylpyrazole as fungicidals” (Bayer Intellectual Property GmbH, priority 2011, dated 2015).
Like-named read-outs stand apart in the source and are kept apart here.

Tests used:
[1] = Determination of log P values by HPLC on a reverse phase column (C18), EEC-Directive 79/831 Annex V.A8 (Methods A, B, C); assay type: physicochemical; conditions: for chromatographic logP: reverse phase C18 HPLC column
Procedure: (§1) Note on the determination of the log P values and mass detection: The stated log P values were determined in accordance with EEC-Directive 79/831 Annex V.A8 by HPLC (High Performance Liquid Chromatography) on a reverse phase column (C18). Agilent 1100 LC system; 50*4.6 Zorbax Eclipse Plus C18 1.8 micron; eluent A: acetonitrile (0.1% formic acid); eluent B: water (0.09% formic acid); linear gradient from 10% acetonitrile to 95% acetonitrile in 4.25 mins, then 95% acetonitrile for a further 1.25 mins; oven temperature 55° C.; flow rate: 2.0 mL/min. The mass detection was effected with an Agilend MSD system.
as §1, with “HP1100;” for “Agilent 1100 LC system;”, “(0.08%” for “(0.09%”, “5%” for “10%”, “1.70 min,” for “4.25 mins,”, “1.00 min;” for “1.25 mins;”, “the Micronass ZQ2000 mass detector from Waters.” for “an Agilend MSD system.”
Note on the determination of the log P values and mass detection: The stated log P values were determined in accordance with EEC-Directive 79/831 Annex V.A8 by UPLC (Ultra Performance Liquid Chromatography) on a reverse phase column (C18). HP1100; 50*2.1 Zorbax Eclipse Plus C18 1.8 micron; eluent A: acetonitrile (0.09% formic acid); eluent B: water (0.1% formic acid); linear gradient from 10% A to 95% A in 3.25 min; oven temperature 40° C.; flow rate: 0.8 mL/min. The mass detection was effected with the LCT Premier or SQD mass detector from Waters.

Uromyces appendiculatus = experiment: Example B: Uromyces test (beans) / preventive; assay type: in vivo; conditions: in vivo
Pyrenophora teres = experiment: Example D: Pyrenophora test (barley) / preventive; assay type: in vivo
Puccinia recondita = experiment: Example E: Puccinia test (wheat) / preventive; assay type: in vivo; conditions: in vivo
Pyricularia oryzae = assay type: in vivo
[2] = Method B (HPLC, reverse phase C18)
[3] = pH 2.7, values in the synthesis examples, HPLC, reverse phase C18, read-out: log P (pH 2.7)
[4] = pH 2.3, intermediates of formula [II], HPLC, reverse phase C18, read-out: LogP (pH 2.3)
[5] = pH 2.3, intermediates of formula [IV] and [XXXVII], HPLC, reverse phase C18, read-out: LogP (pH 2.3)
[6] = pH 2.3, intermediates of formula [VI], HPLC, reverse phase C18, read-out: LogP (pH 2.3)

SMILES | chromatographic logP [1, 3] | chromatographic logP [1, 5] | further results
O=C(CCc1ccccc1)Nc1cc(-c2c(-c3ccccc3)nn3c2OCCC3)ccn1 [Example 15] |  |  | LogP [1, 2]: 2.04; efficacy (Uromyces appendiculatus): 83%; efficacy (Pyrenophora teres; in vivo): 95%; efficacy (Puccinia recondita): 95%; efficacy (Pyricularia oryzae; in vivo): 94%
O=C(CCc1ccccc1)Nc1cc(-c2c(-c3ccc(F)cc3F)nn3c2OCCC3)ccn1 [Example 44] |  |  | LogP [1, 2]: 2.23; efficacy (Uromyces appendiculatus): 94%; efficacy (Puccinia recondita): 95%; efficacy (Pyricularia oryzae; in vivo): 78%
CC(=O)Nc1cc(-c2c(-c3ccc(F)cc3)nn3c2NCCC3)ccn1 [Example 59, N-{4-[2-(4-Fluorophenyl)-4,5,6,7-tetrahydropyrazolo[1,5-a]pyrimidin-3-yl]pyridin-2-yl}acetamide] | 1.48 |  | chromatographic logP ([1]; Method C (HPLC, reverse phase C18), read-out: LogP): 1.48; efficacy (Pyrenophora teres; 500 ppm of active ingredient, barley, preventive spray, evaluated 7-9 days after inoculation): 80%; efficacy (Pyricularia oryzae; 500 ppm of active ingredient, rice, preventive spray, evaluated 7 days after inoculation): 70%
CC(=O)Nc1cc(-c2c(-c3ccsc3)nn3c2OC[Si](C)(C)C3)ccn1 [Example 96] |  |  | LogP ([1]; Method C (HPLC, reverse phase C18)): 1.62; efficacy (Pyrenophora teres; in vivo): 95%; efficacy (Pyricularia oryzae; in vivo): 70%
Nc1cc(-c2c(-c3ccccc3)nn3cccnc23)ccn1 [[II-a-1], 4-(2-Phenylpyrazolo[1,5-a]pyrimidin-3-yl)pyridin-2-amine] | 0.98 |  | chromatographic logP [1, 4]: 0.98
Nc1cc(-c2c(-c3ccccc3)nn3c2NCCC3)ccn1 [[II-b-1], 4-(2-Phenyl-4,5,6,7-tetrahydropyrazolo[1,5-a]pyrimidin-3-yl)pyridin-2-amine] | 1.05 |  | chromatographic logP [1, 4]: 1.05
CC1CCOc2c(B3OC(C)(C)C(C)(C)O3)c(-c3ccc(F)cc3)nn21 (stereo not drawn) [[III-1], 2-(4-fluorophenyl)-7-methyl-3-(4,4,5,5-tetramethyl-1,3,2-dioxaborolan-2-yl)-6,7-dihydro-5H-pyrazolo[5,1-b][1,3]oxazine] | 3.5 |  | 
Brc1c(-c2ccccc2)nn2c1OCCC2 [[IV-1], 3-bromo-2-phenyl-6,7-dihydro-5H-pyrazolo[5,1-b][1,3]oxazine] | 2.66 | 2.66 | 
Fc1ccc(-c2nn3c(c2Br)OCCC3)cc1 [[IV-2], 3-bromo-2-(4-fluorophenyl)-6,7-dihydro-5H-pyrazolo[5,1-b][1,3]oxazine] | 2.86 | 2.86 | 
Fc1ccc(-c2nn3c(c2Br)OCCC3)c(F)c1 [[IV-3], 3-bromo-2-(2,4-difluorophenyl)-6,7-dihydro-5H-pyrazolo[5,1-b][1,3]oxazine] | 2.7 | 2.7 | 
Fc1ccc(-c2nn3c(c2Br)OCC3)cc1 [[IV-4], 7-bromo-6-(4-fluorophenyl)-2,3-dihydropyrazolo[5,1-b][1,3]oxazole] | 2.69 | 2.69 | 
C[Si]1(C)COc2c(Br)c(-c3ccc(F)cc3)nn2C1 [[IV-5], 8-bromo-7-(4-fluorophenyl)-3,3-dimethyl-3,4-dihydro-2H-pyrazolo[5,1-b][1,3,5]oxazasiline] | 3.83 | 3.83 | 
CC1CCOc2c(Br)c(-c3ccc(F)cc3)nn21 (stereo not drawn) [[IV-6], 3-bromo-2-(4-fluorophenyl)-7-methyl-6,7-dihydro-5H-pyrazolo[5,1-b][1,3]oxazine] | 3.36 | 3.36 | 
Fc1ccc(-c2nn3c(c2Br)OCC(F)(F)C3)cc1 [[IV-7], 3-bromo-6,6-difluoro-2-(4-fluorophenyl)-6,7-dihydro-5H-pyrazolo[5,1-b][1,3]oxazine] | 3.3 | 3.3 | 
CC1Oc2c(Br)c(-c3ccc(F)cc3)nn2C1C (stereo not drawn) [[IV-8], 7-bromo-6-(4-fluorophenyl)-2,3-dimethyl-2,3-dihydropyrazolo[5,1-b][1,3]oxazole] |  | 3.39 | chromatographic logP ([1]; pH 2.7, major isomer of the diastereoisomer mixture, read-out: Log P (pH 2.7), major isomer): 3.39; chromatographic logP ([1]; pH 2.7, minor isomer of the diastereoisomer mixture, read-out: Log P (pH 2.7), minor isomer): 3.46
CC1(C)COc2c(Br)c(-c3ccc(F)cc3)nn2C1 [[IV-10], 3-bromo-2-(4-fluorophenyl)-6,6-dimethyl-6,7-dihydro-5H-pyrazolo[5,1-b][1,3]oxazine] | 3.63 | 3.63 | 
CC1(C#N)COc2c(Br)c(-c3ccc(F)cc3)nn2C1 (stereo not drawn) [[IV-11], 3-bromo-2-(4-fluorophenyl)-6-methyl-6,7-dihydro-5H-pyrazolo[5,1-b][1,3]oxazine-6-carbonitrile] | 2.94 | 2.94 | 
C[Si]1(C)COc2c(Br)c(-c3cccs3)nn2C1 [[IV-12], 8-bromo-3,3-dimethyl-7-(2-thienyl)-3,4-dihydro-2H-pyrazolo[5,1-b][1,3,5]oxazasiline] | 3.58 | 3.58 | 

SMILES | chromatographic logP [1, 3] | chromatographic logP [1, 5] | further results
Cc1coc2c(Br)c(-c3ccc(F)cc3)nn12 [[IV-a-1], 7-bromo-6-(4-fluorophenyl)-3-methylpyrazolo[5,1-b][1,3]oxazole] | 3.56 | 3.56 | 
CCc1coc2c(Br)c(-c3ccc(F)cc3)nn12 [[IV-a-2], 7-bromo-3-ethyl-6-(4-fluorophenyl)pyrazolo[5,1-b][1,3]oxazole] | 4.18 | 4.18 | 
Fc1ccc(-c2nn3ccoc3c2Br)cc1 [[IV-a-3], 7-bromo-6-(4-fluorophenyl)pyrazolo[5,1-b][1,3]oxazole] | 3.07 | 3.07 | 
Brc1c(-c2ccccc2)nn2ccoc12 [[IV-a-4], 7-bromo-6-phenylpyrazolo[5,1-b][1,3]oxazole] | 2.91 | 2.91 | 
c1ccc(-c2cc3n(n2)CCCO3)cc1 [[VI-1], 2-phenyl-6,7-dihydro-5H-pyrazolo[5,1-b][1,3]oxazine] | 2.04 |  | chromatographic logP [1, 6]: 2.04
Fc1ccc(-c2cc3n(n2)CCCO3)cc1 [[VI-2], 2-(4-fluorophenyl)-6,7-dihydro-5H-pyrazolo[5,1-b][1,3]oxazine] | 2.18 |  | chromatographic logP [1, 6]: 2.18
Fc1ccc(-c2cc3n(n2)CCCO3)c(F)c1 [[VI-3], 2-(2,4-difluorophenyl)-6,7-dihydro-5H-pyrazolo[5,1-b][1,3]oxazine] | 2.38 |  | chromatographic logP [1, 6]: 2.38
CC1CCOc2cc(-c3ccc(F)cc3)nn21 (stereo not drawn) [[VI-4], 2-(4-fluorophenyl)-7-methyl-6,7-dihydro-5H-pyrazolo[5,1-b][1,3]oxazine] | 2.65 |  | chromatographic logP [1, 6]: 2.65
C[Si]1(C)COc2cc(-c3ccc(F)cc3)nn2C1 [[VI-5], 7-(4-fluorophenyl)-3,3-dimethyl-3,4-dihydro-2H-pyrazolo[5,1-b][1,3,5]oxazasiline] | 3.11 |  | chromatographic logP [1, 6]: 3.11
Fc1ccc(-c2cc3n(n2)CCS3)cc1 [[VI-6], 6-(4-fluorophenyl)-2,3-dihydropyrazolo[5,1-b][1,3]thiazole] | 2.53 |  | chromatographic logP [1, 6]: 2.53
CC1(C)COc2cc(-c3ccc(F)cc3)nn2C1 [[VI-10], 2-(4-fluorophenyl)-6,6-dimethyl-6,7-dihydro-5H-pyrazolo[5,1-b][1,3]oxazine] | 2.96 |  | chromatographic logP [1, 6]: 2.96
CC1(C#N)COc2cc(-c3ccc(F)cc3)nn2C1 (stereo not drawn) [[VI-11], 2-(4-fluorophenyl)-6-methyl-6,7-dihydro-5H-pyrazolo[5,1-b][1,3]oxazine-6-carbonitrile] | 2.39 |  | chromatographic logP [1, 6]: 2.39
O=c1cc(-c2ccc(F)cc2)[nH][nH]1 [[VII-2], 3-(4-fluorophenyl)-1H-pyrazol-5-ol] | 1.11 |  | 
Oc1cc(-c2ccc(F)cc2F)n[nH]1 [[VII-3], 3-(2,4-difluorophenyl)-1H-pyrazol-5-ol] | 1.25 |  | 
Brc1c(-c2ccccc2)nn2cccnc12 [[XXXVII-1], 3-Bromo-2-phenylpyrazolo[1,5-a]pyrimidine] | 2.63 | 2.63 | 
Fc1ccc(-c2nn3cccnc3c2Br)cc1 [[XXXVII-2], 3-Bromo-2-(4-fluorophenyl)pyrazolo[1,5-a]pyrimidine] | 2.8 | 2.8 | 
Fc1ccc(-c2cc3ncccn3n2)cc1 [[XXXVIII-1], 2-(4-Fluorophenyl)pyrazolo[1,5-a]pyrimidine] | 2.17 |  | 
